Data as given in BigSolDB 2.1.

CC(=O)Oc1ccccc1C(=O)O
solubility (mole fraction)
Details	283.15 K	288.15 K	293.15 K	298.15 K	303.15 K	308.15 K	313.15 K	318.15 K	323.15 K
in acetone	0.0629	0.0733	0.0821	0.0931	0.105	0.113	0.126	0.138	0.157
in ethanol	0.0334	0.0426	0.0515	0.0614	0.074	0.0876	0.102	0.122	0.141
in ethyl acetate	0.0267	0.0314	0.0361	0.0413	0.0471	0.0543	0.0651	0.0738	0.0849
in n-propanol	0.0254	0.0316	0.037	0.0473	0.0576	0.0687	0.0816	0.0971	0.118
